Assays:
Ros1 enzyme = target: T1, Ros1 enzyme (Homo sapiens, UniProt P08922); assay: Ros1 enzymatic assay; assay type: biochemical; conditions: -log IC50 (M); 20 μM ATP, 120 min at room temperature; read-out: ROS1 pIC50 (converted)
T1 construct: 0.5 μg/ml Ros1 enzyme
Protocol: Compounds were spotted onto white 384-well Proxiplate plus plates (Perkin Elmer) to which 5 μl of enzyme mix (0.5 μg/ml Ros1 enzyme, 50 mM Tris-HCl pH7.5, 1 mM EGTA, 10 mM MgCl2, 0.01% Tween-20) and 5 μl of substrate mix (6 μg/ml IRS-Tide [American Peptide Company], 20 μM ATP, 13.33 μCi/ml ATP (adenosine 5′-triphosphate) P^33, 50 mM Tris-HCl pH7.5, 1 mM EGTA (ethylene glycol-bis(2-aminoethylether)-N,N,N′,N′-tetraacetic acid), 10 mM MgCl2, 0.01% Tween-20) were added. After incubation for 120 minutes at room temperature, 10 μl of stop reaction buffer (5 mM EDTA, 50 μM ATP, 0.1% BSA (bovine serum albumin), 0.1% Triton X-100, 50 mM Tris-HCl pH7.5, 1 mM EGTA, 10 mM MgCl2, 0.01% Tween-20) containing 2 mg/ml streptavidin coupled polystyrene imaging beads (Amersham Biosciences) was added and incubated for 15 minutes at room temperature. Plates were centrifuged for 3 minutes at 1500 rpm and signals detected in a LEADseeker imaging system (GE).

Ros pY2274 = Ros pY2274 (Homo sapiens, UniProt P08922); assay: pROS1 immunofluorescence assay in HCC78 cells; assay type: cell-based; conditions: -log IC50 (M); 4 hours, Ros1 pY2274 normalized to total Ros1
Protocol: Approximately 20000 HCC78 non-small cell lung cancer cells in 180 μl of cell culture medium (RPMI-1640, 10% FBS, 2 mM L-Glutamine, 10 mM Hepes, 1 mM sodium pyruvate, 4.5 g/L glucose, 1.5 g/L sodium bicarbonate, 25 μg/ml Gentamycin) were seeded in each well of a 96-well polystyrene, poly-D-lysine coated plate and incubated at 37° C. and 5% CO2. After 24 hours, compounds were diluted in cell culture medium from which 20 μl was added to the wells containing cells and incubated for 4 hours at 37° C. and 5% CO2. The medium was removed and the cells were fixed by adding 100 μl of 5% formaldehyde in TBS (tris-buffered saline) (50 mM Tris.HCl, pH 7.4, 150 mM NaCl) and incubating for 15 minutes at room temperature. The formaldehyde was removed and replaced with methanol for 10 minutes at room temperature, after which the cells were washed 3 times with TBS containing 1% Triton X-100 and incubated in Odyssee (Li-Cor) blocking buffer for 1 hour at room temperature. The cells were then incubated with the primary rabbit antibody directed against Ros pY2274 (cst-3078) diluted 1/200 in blocking buffer for 24 hours at room temperature. The cells were washed three times with TBS containing 0.1% Triton X-100 and incubated with a secondary anti-rabbit antibody conjugated to the fluorescent dye Alexafluor 680 in blocking buffer for 1 hour at room temperature. The cells were washed three times with TBS containing 0.1% Triton X-100 and left to dry before measuring RFUs (Relative Fluorescence Units) at 700 nm using a fluorescence imager. The same experiment was performed using total Ros1 antibody (sc-6347) diluted 1/1000 instead of Ros1 pY2274 antibody and an anti-goat antibody conjugated to IRDye800cw as a secondary antibody. RFUs were measured at […]. The signals from total Ros1 detection were used to normalize the Ros1pY2274 values.

[1] = target: Ba/F3 cells containing Ros1 L2026M (Homo sapiens, UniProt P08922, L2026M, cells depend on it, form not given); assay: Ba/F3-Ros1 cell proliferation assay, L2026M gatekeeper mutant; assay type: cell-based, murine; conditions: -log IC50 (M), no IL-3
Protocol: (§1) This assay was carried out with Ba/F3 cells containing three different versions of Ros1: the wild-type protein, protein with a mutation at the gatekeeper residue (L2026M), and protein with a mutation identified in a tumor from a patient that became resistant to crizotinib (Xalkori®) treatment (G2032R). Compounds were solubilized in 100% DMSO (dimethyl sulfoxide) and sprayed into polystyrene, tissue culture treated 384-well plates. A 50 μl volume of cell culture medium (phenol red free RPMI-1640, 10% FBS (fetal bovine serum), 2 mM L-Glutamine) containing 20000 Ba/F3-Ros1 cells was added to each well and the plates were placed in an incubator at 37° C. and 5% CO2. After 24 hours, 10 μl of Alamar Blue solution (0.5 mM K3Fe(CN)6, 0.5 mM K4Fe(CN)6, 0.15 mM Resazurin and 100 mM Phosphate Buffer) was added to the wells, incubated for 4 hours at 37° C. and 5% CO2 before RFU's (Relative Fluorescence Units) (ex. 540 nm., em. 590 nm.) were measured in a fluorescence plate reader.

[2] = tested on: Ba/F3 cells containing Ros1 wild-type protein + IL-3; assay: Ba/F3-Ros1 cell proliferation counter-screen, wild-type Ros1 in the presence of murine IL-3; assay type: cell-based; conditions: Mus musculus, BaF3, 24 h; -log IC50 (M); wild-type Ros1, 10 ng/ml murine IL-3 (counter-screen); read-out: BaF3-ROS1 + IL3 pIC50 (converted)
Protocol: as §1
As a counter-screen the same experiment was performed for the wild-type protein in the presence of 10 ng/ml murine IL-3.

[3] = tested on: HCC78 non-small cell lung cancer cells; assay: HCC78 cell proliferation assay; assay type: cell-based; conditions: Homo sapiens, HCC78, 96 h; -log EC50 (M); 4 days, MTT; read-out: HCC-78 PROL pEC50 (converted)
Protocol: Approximately 1000 HCC78 non-small cell lung cancer cells in 180 μl of cell culture medium (RPMI-1640, 10% FBS, 2 mM L-Glutamine, 10 mM Hepes, 1 mM sodium pyruvate, 4.5 g/L glucose, 1.5 g/L sodium bicarbonate, 25 μg/ml Gentamycin) were seeded in each well of a 96-well polystyrene, tissue-culture treated plate and incubated at 37° C. and 5% CO2. After 24 hours, compounds were diluted in cell culture medium from which 20 μl was added to the wells containing cells and incubated for 4 days at 37° C. and 5% CO2. A 5 mg/ml solution of the tetrazolium dye MTT was prepared in PBS (phosphate-buffered saline) and 25 μl was added to each well. After 2 hours the medium was removed and replaced by 125 μL of 4/1 DMSO/glycine buffer (0.1M glycine, 0.1M NaCl, pH 10.5) before absorbance was determined at 538 nm.

[4] = target: Ba/F3 cells containing Ros1 wild-type protein (Homo sapiens, UniProt P08922, cells depend on it, form not given); assay: Ba/F3-Ros1 cell proliferation assay, wild-type Ros1, without IL-3; assay type: cell-based, murine; conditions: -log IC50 (M); wild-type Ros1, no IL-3, 24 h, Alamar Blue
Protocol: as §1

Ba/F3-Ros1 G2032R tumors = assay: Efficacy study in mice bearing Ba/F3-Ros1 G2032R tumors; assay type: in vivo, NMRI nude mice; conditions: oral gavage, 10 days, 20% cyclodextrin, change in final relative tumor volumes
Protocol: Approximately 2×10^6 Ba/F3 cells containing G2032R mutant Ros1 were inoculated into the inguinal region of NMRI nude mice. When the resulting tumors reached a size of 250 to 350 mm^3, mice were randomly assigned to the different treatment groups (8 to 12 mice per group). Compounds formulated in 20% cyclodextrin were administered to the mice by oral gavage at various doses for 10-days once (QD) or twice (BID) a day (see table below for administration frequency used in the study). Tumor sizes were determined by caliper measurement on day 1 prior to treatment and then twice weekly for the duration of the study using the commonly following formula: tumor volume (mm^3)=(a×b^2/2); where ‘a’ represents the length, and ‘b’ the width of the tumor. Treatment/control (T/C) ratios were calculated at the end of the study based on the change in final relative tumor volumes.

[5] = target: Ba/F3 cells containing Ros1 G2032R (Homo sapiens, UniProt P08922, G2032R, cells depend on it, form not given); assay: Ba/F3-Ros1 cell proliferation assay, G2032R mutant; assay type: cell-based, murine; conditions: -log IC50 (M), no IL-3
Protocol: as §1

T1 sequence (P08922 28-2347): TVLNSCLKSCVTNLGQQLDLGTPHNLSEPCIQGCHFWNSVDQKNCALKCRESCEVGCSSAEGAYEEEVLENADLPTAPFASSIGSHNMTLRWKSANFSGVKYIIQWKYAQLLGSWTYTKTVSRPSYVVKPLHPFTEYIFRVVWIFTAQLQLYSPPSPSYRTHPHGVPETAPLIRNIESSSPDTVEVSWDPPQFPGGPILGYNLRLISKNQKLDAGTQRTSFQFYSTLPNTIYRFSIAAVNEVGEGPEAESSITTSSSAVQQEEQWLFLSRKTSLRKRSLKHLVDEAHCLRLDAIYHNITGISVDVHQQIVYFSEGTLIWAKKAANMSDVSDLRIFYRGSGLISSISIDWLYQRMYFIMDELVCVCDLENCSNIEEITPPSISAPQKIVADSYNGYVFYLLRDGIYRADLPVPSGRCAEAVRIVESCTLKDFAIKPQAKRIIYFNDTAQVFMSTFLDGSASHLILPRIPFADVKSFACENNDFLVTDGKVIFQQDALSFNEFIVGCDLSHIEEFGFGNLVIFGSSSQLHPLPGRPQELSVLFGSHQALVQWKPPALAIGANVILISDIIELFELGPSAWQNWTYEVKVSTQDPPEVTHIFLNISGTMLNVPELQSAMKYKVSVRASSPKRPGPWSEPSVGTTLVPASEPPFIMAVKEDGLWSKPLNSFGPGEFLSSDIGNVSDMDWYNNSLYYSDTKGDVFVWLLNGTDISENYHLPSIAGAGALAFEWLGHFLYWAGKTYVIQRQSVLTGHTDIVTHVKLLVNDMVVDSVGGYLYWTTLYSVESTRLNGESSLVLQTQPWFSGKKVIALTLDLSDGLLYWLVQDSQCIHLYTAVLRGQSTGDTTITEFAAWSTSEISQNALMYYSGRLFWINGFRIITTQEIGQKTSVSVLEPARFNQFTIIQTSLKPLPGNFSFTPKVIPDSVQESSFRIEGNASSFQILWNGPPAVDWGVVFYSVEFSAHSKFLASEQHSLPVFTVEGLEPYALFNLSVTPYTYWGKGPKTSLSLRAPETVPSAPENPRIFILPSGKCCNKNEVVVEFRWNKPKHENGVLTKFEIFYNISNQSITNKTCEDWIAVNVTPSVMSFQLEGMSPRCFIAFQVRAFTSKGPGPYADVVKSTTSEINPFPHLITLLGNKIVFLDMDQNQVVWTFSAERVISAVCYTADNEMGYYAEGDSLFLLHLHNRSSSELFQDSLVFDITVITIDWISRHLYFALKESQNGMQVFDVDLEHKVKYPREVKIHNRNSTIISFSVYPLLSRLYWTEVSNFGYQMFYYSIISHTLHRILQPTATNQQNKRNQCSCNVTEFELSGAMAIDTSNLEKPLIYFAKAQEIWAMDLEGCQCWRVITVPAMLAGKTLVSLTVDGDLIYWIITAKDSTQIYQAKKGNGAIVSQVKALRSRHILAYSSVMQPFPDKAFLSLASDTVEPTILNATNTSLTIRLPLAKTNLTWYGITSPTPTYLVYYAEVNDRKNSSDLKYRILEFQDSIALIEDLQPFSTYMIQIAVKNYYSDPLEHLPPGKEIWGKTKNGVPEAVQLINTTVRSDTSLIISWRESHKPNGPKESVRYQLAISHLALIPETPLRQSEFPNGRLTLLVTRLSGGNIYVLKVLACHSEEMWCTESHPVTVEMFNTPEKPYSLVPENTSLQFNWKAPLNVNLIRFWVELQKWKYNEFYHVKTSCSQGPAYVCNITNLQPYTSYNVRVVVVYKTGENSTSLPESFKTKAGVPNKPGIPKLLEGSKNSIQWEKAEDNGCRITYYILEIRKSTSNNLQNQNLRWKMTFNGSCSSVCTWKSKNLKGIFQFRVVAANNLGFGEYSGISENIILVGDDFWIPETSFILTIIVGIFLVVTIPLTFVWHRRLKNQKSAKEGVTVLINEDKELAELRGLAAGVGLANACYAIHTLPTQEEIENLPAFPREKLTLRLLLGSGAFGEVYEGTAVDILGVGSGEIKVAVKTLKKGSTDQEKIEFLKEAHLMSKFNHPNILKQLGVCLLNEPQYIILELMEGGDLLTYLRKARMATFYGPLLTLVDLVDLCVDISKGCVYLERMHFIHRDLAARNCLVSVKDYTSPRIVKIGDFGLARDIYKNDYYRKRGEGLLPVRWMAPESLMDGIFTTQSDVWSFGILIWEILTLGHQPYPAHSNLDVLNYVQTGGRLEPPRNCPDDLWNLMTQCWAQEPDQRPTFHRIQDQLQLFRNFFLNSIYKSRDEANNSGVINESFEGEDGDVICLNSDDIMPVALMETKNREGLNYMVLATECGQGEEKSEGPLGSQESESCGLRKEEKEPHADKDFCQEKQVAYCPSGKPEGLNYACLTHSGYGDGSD
Chain of Ros pY2274 (P08922 1750-2347): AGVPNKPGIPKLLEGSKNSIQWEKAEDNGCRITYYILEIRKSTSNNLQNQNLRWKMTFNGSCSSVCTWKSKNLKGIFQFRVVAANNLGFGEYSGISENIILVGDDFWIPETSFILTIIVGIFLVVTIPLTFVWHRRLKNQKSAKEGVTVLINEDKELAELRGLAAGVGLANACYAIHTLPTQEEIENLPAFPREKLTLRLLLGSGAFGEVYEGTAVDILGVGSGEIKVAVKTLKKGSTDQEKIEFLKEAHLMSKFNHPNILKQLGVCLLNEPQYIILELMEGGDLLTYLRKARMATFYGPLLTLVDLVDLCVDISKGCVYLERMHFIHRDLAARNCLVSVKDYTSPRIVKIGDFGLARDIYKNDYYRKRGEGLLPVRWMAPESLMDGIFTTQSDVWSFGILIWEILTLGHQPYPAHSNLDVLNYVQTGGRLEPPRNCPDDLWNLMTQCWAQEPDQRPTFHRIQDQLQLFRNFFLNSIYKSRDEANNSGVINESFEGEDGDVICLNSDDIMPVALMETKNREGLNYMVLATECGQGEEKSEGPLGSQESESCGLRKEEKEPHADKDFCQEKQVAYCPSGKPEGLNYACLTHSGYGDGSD

| IC50 (Ros1 enzyme) [M] | HCC78 pRos pIC50 (Ros pY2274) | Ba/F3 Ros1 L2026M (-IL-3) pIC50 [1] | melting point [°C] | EC50 [3] [M] | BaF3-ROS1 − IL3 pIC50 [4] | Ba/3 Ros1 G2032R (-IL-3) pIC50 [5] | SMILES | CC50 [2] [M] | T/C (%) (Ba/F3-Ros1 G2032R tumors; 12.5 mg/kg BID) | T/C (%) (Ba/F3-Ros1 G2032R tumors; 25 mg/kg BID) | T/C (%) (Ba/F3-Ros1 G2032R tumors; 50 mg/kg BID) |
| --- | --- | --- | --- | --- | --- | --- | --- | --- | --- | --- | --- |
| 3.98e-08 | 7.6 | 6.9 | 205 | 1e-07 | 7.1 | – | CC(C)c1ccc(COc2ccc(-c3c(-c4ccncc4)nn4c3NCCC4)cc2)cc1 [Co. 17] | > 1e-05 | – | – | – |
| 1.26e-07 | – | ~6.7 | 156 | 7.94e-07 | 7.0 | 6.4 | CC(C)c1ccc(COc2ccc(-c3c(-c4ccncc4)nn4c3NCC4)cc2)cc1 [Co. 1] | 5.01e-06 | 64 | 16 | −18 |
| 1.26e-07 | ~5.4 | 7.3 | 290 | 1e-07 | 7.0 | – | CC(C)c1ccc(COc2ccc(-c3c(-c4ccncc4)nn4c3NC(=O)CC4)cc2)cc1 [Co. 16] | > 1e-05 | – | – | – |
| 2.51e-07 | – | 7.5 | 159 | 6.31e-07 | 6.8 | 6.2 | c1cc(-c2nn3c(c2-c2ccc(OCc4ccc(C5CC5)cc4)cc2)NCC3)ccn1 [Co. 7] | > 1e-05 | – | – | – |
| 1.58e-07 | 6.8 | 6.7 | – | 5.01e-07 | 6.8 | – | CC(C)c1ccc(COc2ccc(-c3c(-c4ccncc4)nn4c3NC(=O)C4)cc2)cc1 [Co. 13] | > 1e-05 | – | – | – |
| 1.26e-07 | – | 6.8 | 151 | 2.51e-06 | 7.1 | 6.4 | CC(C)c1ccc(COc2ccc(-c3c(-c4ccncc4)nn4c3N(CCO)CC4)cc2)cc1 [Co. 10] | > 1e-05 | – | – | – |

— patent publication US10342795B2, “Substituted 4,5,6,7-tetrahydro-pyrazolo[1,5-a]pyrimidine derivatives and 2,3-dihydro-1H-imidazo[1,2-b]pyrazole derivatives as ROS1 inhibitors” (Janssen Pharmaceutica NV, priority 2014, dated 2019)
